In PubChem BioAssay (NCI) one finds GI50 and TGI data, which are given here for 39 molecules.

“And” between values parts separate entries of the source, which are not always exact repeats. Equal entries are not always repeated.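 All cell lines were grown in 96-well plates and treated with compound for 48 hours. Abbreviation: GI50, concentration required for 50% inhibition of growth. At the TGI there is no net growth.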

This assay concerns MDA-MB-468 breast. As to the kind of experiment: DTP human tumour cell line panel, 48 h.

Turning to `CCCCCCNC(=O)Nc1ccc2cc3ccc(NC(=O)NCCCCCC)cc3nc2c1`, the GI50 (as a rule, the concentration that inhibits growth by half) is 1620 nM and the TGI (usually the concentration giving total growth inhibition) stood at 3730 nM.

`Cc1nc2cc(-n3c(-c4ccc(F)cc4)nc4ccccc4c3=O)ccc2n1Cc1ccccc1`: the GI50 was 2000 nM and the TGI was determined as 4950 nM.

On to `FC(F)(F)c1cccc(Nc2nc3ccccc3nc2Nc2cccc(C(F)(F)F)c2)c1`, for which the GI50 is 1530 nM and the TGI worked out at 3560 nM.

As to `Cc1ccc(-c2cc(C(=O)N3N=C(c4ccc(N)cc4)CC3c3ccc(Cl)cc3)c3ccccc3n2)cc1` (stereo unspecified), the GI50 is 4910 nM and the TGI was more than 100000 nM.

Consider `NC(=O)c1cccc(N2Cc3ccccc3OC3=C2C(=O)c2c(O)ccc(O)c2C3=O)c1`, for which the GI50 was 195 nM and the TGI amounted to 425 nM.

In the case of `O[N+]1=CC=CCC1=S.On1ccccc1=S.[Zn]`, the GI50 was 584 nM and the TGI was 1600 nM.

Regarding `COc1cccc(/C=N/Nc2ncnc3c2cnn3-c2cccc(OC)c2)c1`, the GI50 was more than 25000 nM and the TGI is more than 25000 nM.

In the case of `C1CN1c1nc(N2CC2)nc(N2CC2)n1`, the GI50 is 4830 nM and the TGI turned out to be 19200 nM.

Take `COC(=O)[C@@H](C[C@H](Cc1ccccc1)NC(=O)c1csc([C@@H](C[C@H](C(C)C)N(C)C(=O)[C@@H](NC(=O)[C@H]2CCCCN2C)C(C)C)OC(C)=O)n1)NC(=O)OCc1ccccc1`: the GI50 is less than 0.833 nM and the TGI is less than 0.833 nM.

Take `COc1ccc(/C=N/C2=C(C#N)C(c3ccccc3)c3c(ccc4ccccc34)O2)cc1` (stereo unspecified): the GI50 was 1080 nM and the TGI was determined as 20500 nM.

As to `CCCCCCCCCCCC[n+]1c(C)cc(N)c2ccccc21`, the GI50 was 206 nM and the TGI was 760 nM.

Turning to `CC(=O)OC[C@]1(C)C=C2C(=O)[C@](C)(O)C3(CC3)C(C)=C2[C@H]1OC(=O)N(C)CCN(C)C(=O)OC(C)(C)C`, the GI50 was 519 nM and the TGI amounted to 1200 nM.

Consider `O=C(O)CCCn1c(SCc2c(Cl)cccc2Cl)nc2ccsc2c1=O`, for which the GI50 was 240 nM and the TGI was more than 100000 nM.

As for `CC(Nc1c(C#N)cnc2ccc(-c3cnc(N)nc3)cc12)c1ccccc1` (stereo unspecified), the GI50 was 396 nM and the TGI was found to be 3340 nM.

On to `COc1ccc(/C=C/C(=O)c2cccc(B(O)O)c2)cc1O`, for which the GI50 was 2860 nM and the TGI is 21000 nM.

Consider `CO[C@H](C(=O)[C@@H](O)[C@@H](C)O)[C@@H]1Cc2cc3cc(O[C@H]4C[C@@H](O[C@H]5C[C@@H](O)[C@H](O)C(C)O5)[C@H](O)C(C)(O)O4)cc(O)c3c(O)c2C(=O)[C@H]1O[C@H]1C[C@@H](O[C@H]2C[C@@H](O[C@H]3C[C@@H](OC)[C@H](O)C(C)O3)[C@@H](O)C(C)O2)[C@H](O)C(C)O1` (stereo partly specified), for which the GI50 is 2930 nM and the TGI was more than 16800 nM.

`Clc1ccc(/C=C2\CCCC3C2=Nc2ccccc2NC3c2ccc(Cl)cc2)cc1` (stereo unspecified): the GI50 was 1890 nM and the TGI is 4600 nM.

Take `Cc1c2cnccc2c(C)c2c1c1cc(CO)ccc1n2C`: the GI50 was 151 nM and the TGI was determined as 420 nM.

With `CN([O-])c1nc(N(C)[O-])nc(N2CCOCC2)n1.CN([O-])c1nc(N(C)[OH2+])nc(N2CCOCC2)n1.[Fe+3]`, the GI50 is 45400 nM and the TGI was more than 100000 nM.

For `CN1CCN(c2ccc3nc(-c4c5cccccc-5[nH]c4=O)[nH]c3c2)CC1`, the GI50 is 15400 nM and the TGI amounted to 34200 nM.

On to `O=C(Nc1cccc(-c2cccc(F)c2)c1)C1CCN(Cc2cccc3cccnc23)CC1`, for which the GI50 was 1760 nM and the TGI is 3460 nM.

Regarding `CC(=O)c1cc2c(c(O)c1C)C(=O)C(=O)c1c(O)cccc1-2`, the GI50 is 198 nM and the TGI is 495 nM.

As for `O=C1c2ccccc2C(=O)c2c(N=Nc3[nH]c(=S)[nH]c3O)cccc21`, the GI50 is 440 nM and the TGI came out at 9340 nM.

For the molecule `O=C(C[Si](CC(=O)c1cccc(C(F)(F)F)c1)CC(=O)c1cccc(C(F)(F)F)c1)c1cccc(C(F)(F)F)c1`, the GI50 is 2240 nM and the TGI was 6710 nM.

On to `Cc1cc(Nc2cccc(F)c2)nc(NCc2ccccc2)n1`, for which the GI50 was 2170 nM and the TGI came out at 7750 nM.

With `CN(C)c1ccc2nc3ccc(N)cc3[n+](-c3ccccc3)c2c1`, the GI50 was 179 nM and 1740 nM; the TGI is 1540 nM and 7280 nM.

On to `Cc1c(C(N)=O)sc2c1c(=O)n(Cc1ccccc1)c1nnc(SCC(=O)Nc3ccc(Cl)cc3)n21`, for which the GI50 was 2640 nM and the TGI was 6880 nM.

Regarding `Cn1cc(C2=C(c3cn(CCCO)c4ccccc34)C(=O)NC2=O)c2ccccc21`, the GI50 is 2250 nM and the TGI was found to be 18400 nM.

Turning to `COc1ccc(S(=O)(=O)Nc2cc(/C=C\c3cc(OC)c(OC)c(OC)c3)cc(OC)c2OC)cc1`, the GI50 is 42 nM and the TGI was more than 100000 nM.

With `COc1ccc2nc3cc(Cl)ccc3c(NCCCCCN3CCCCC3)c2c1`, the GI50 was 1210 nM and the TGI came to 2580 nM.

As to `CC(C)[C@]12O[C@H]1[C@@H]1O[C@]13[C@]1(O[C@H]1C[C@H]1C4=C(CC[C@@]13C)C(=O)OC4)[C@@H]2OC(=O)CN(C)C`, the GI50 was 18.3 nM and the TGI came to 52.4 nM.

Consider `COC(=O)C(N)CSC(c1ccccc1)(c1ccccc1)c1ccccc1` (stereo unspecified), for which the GI50 is 336 nM and the total growth inhibition concentration (TGI) turned out to be 2740 nM.

For `CCN(CC)c1ccc(/C=C2\SC(=O)C(Nc3nnc(-c4cccnc4SCc4ccccc4)o3)C2=O)cc1` (stereo unspecified), the GI50 is 3230 nM and the TGI came out at 11800 nM.

For `C[C@@H](O)[C@H]1C(=O)N2C(C(=O)O)=C(SCCN=CN)C[C@H]12`, the GI50 was 1100 nM and the TGI came to 2730 nM.

Turning to `Cn1cc(C2=C(c3cn(CCSC(=N)N)c4ccccc34)C(=O)NC2=O)c2ccccc21`, the GI50 is 3190 nM and the TGI stood at 7120 nM.

`Nc1nc(N)c2cc(CNc3ccc(C(=O)NC(CC(=O)O)C(=O)O)cc3)ccc2n1` (stereo unspecified): the GI50 was 941 nM.

For `COc1cccc2c1-c1ccccc1C2=O`, the GI50 is 346 nM and the TGI was 21300 nM.

For `O=C(N/N=C\c1c(O)ccc2ccccc12)C1CC1`, the GI50 is 3160 nM and the TGI came out at 8680 nM.

Take `O=C1OCC2=C1C(c1cccc(Cl)c1)c1cc3c(cc1N2CCO)OCO3` (stereo unspecified): the GI50 is 246 nM.
